From patent US9260481B2, “Peptide derivatives as antibiotics” (priority 2011, dated 2016)
In brackets after ≈: the same amount, converted by molar mass. Where two headings read alike, the source gives them in different places. Numbered stars: 1 amine (or outer) side, 2 acyl side, 3 side chain; on linkers, the order of the positions; unused ones are H or OH. Square brackets hold non-standard residues; d marks the D form. Peptide text beside a SMILES is read from it. * marks the point of attachment. ξ: configuration not given here. X1 = NCC(O)CCC(N[*:1])C(=O)[*:2]; ΔZArg = N=C(N)NCC/C=C(\N)C(=O)O; ξDab(3-OH) = NCC(O)C(N)C(=O)O; Orn = NCCC[CH](N)C(=O)O; NH(CH2)4NH2 = NCCCCN*

What was measured:
Escherichia coli = tested on: Escherichia coli
Description: (§1) The minimal inhibitory concentrations (MIC) were determined according to the Clinical and Laboratory Standards Institute (CLSI) conditions guidelines detailed in Table 7. Assays were performed in triplicate.
(§2) Preparation of Inocula. Five to 10 well-isolated colonies were picked and resuspended in 3 ml sterile saline. The inoculum was re-suspended by vigorous shaking on a vortex mixer for 15 s. Turbidity was adjusted to McFarland standard 0.5 ([…]). The inoculum was further diluted in the appropriate media (Table 7) to give a final inoculum in each well of ˜2-8×10^5 CFU/ml.
(§3) Addition of Test Article. Stock solutions of Odilomycin A or comparator were diluted in the appropriate media to give a maximum starting concentration of 50 μg/mL in the assay. 50 μL of medium was dispensed into each well in columns two to 12 of a 96 well plate. 100 μL of the appropriate test compound solution (100 μg/mL) was dispensed into each well in column one. In the case of M. catarrhalis, M. haemolytica and P. multocida these values were doubled (a final assay volume of 200 μL was used). […] Columns 11 and 12 served as positive (no drug or test article, inoculum added), and negative (no drug, test article, or inoculum added) growth controls respectively.
(§4) Addition of Bacterial Strains. 50 μL of each inoculum suspension was added to the appropriate wells, resulting in a final volume of 100 μL consisting of 50 μL diluted compound or diluents, and 50 μL of inoculum or broth alone.

Klebsiella oxytoca = tested on: Klebsiella oxytoca
Description: as §1, §2, §3, §4

Klebsiella pneumoniae = conditions: K. pneumoniae
Description: as §1, §2, §3, §4

[1] = tested on: Stenotrophomonas maltophilia
Description: as §1, §2, §3, §4

Streptococcus pneumonia = tested on: Streptococcus pneumonia
Description: as §1, §2, §3, §4

Streptococcus pyogenes = tested on: Streptococcus pyogenes
Description: as §1, §2, §3, §4

Bacteroides fragilis = assay: microbe, parasite or virus in culture
Description: as §1, §2, §3, §4

Staphylococcus aureus = assay: microbe, parasite or virus in culture; conditions: for Antibacterial activity (MIC): unit not given in table (MICs in μg/mL)
Description: as §1, §2, §3, §4

S. aureus ATCC 13709 [2] = type: cell-based, Staphylococcus aureus; conditions: ATCC 13709, 24 h
Description: Minimal bactericidal concentrations (MBCs) were established by extending the MIC procedure to the evaluation of bactericidal activity. After 24 hours, 10 μL were drawn from the wells, serially diluted and then spotted onto suitable agar plates. The plates were incubated at 37° C. overnight. […] All the experiments were done in triplicate.

S. aureus ATCC 13709 [3] = assay: Bacterial killing curves (time-to-kill); type: cell-based, Staphylococcus aureus; conditions: growing S. aureus ATCC 13709, at four-fold the MIC
Description: (§5) Bacterial killing curves were carried out by inoculating S. aureus ATCC 13709 and P. aeruginosa ATCC 27853 with Odilomycin A concentration equal to four-fold the MIC. […] S. aureus and P. aeruginosa inoculi were prepared from colonies grown overnight in MHB. Antibiotics concentrations in the flask were adjusted in MHB according to the desired concentration. Culture tubes containing 10 mL were inoculated with S. aureus or P. aeruginosa at an approximate inoculum of 10^5 CFU/mL. Samples were drawn and bacteria were counted at 0, 1, 2, 3, 4, 6 and 24 h of incubation at 37° C. Thus, after vortexing the culture tubes, two 50 μL samples were removed and serially diluted with MHB. After each dilution step, 20 μL was plated onto LB agar plates, which were incubated for 24 h at 37° C. Afterwards the colonies were counted and back-extrapolated to the original volume to determine the initial concentration (CFU/mL).

P. aeruginosa ATCC 27853 [4] = assay: Bacterial killing curves (time-to-kill); type: cell-based, Pseudomonas aeruginosa; conditions: growing P. aeruginosa ATCC 27853, at four-fold the MIC
Description: as §5

K. pneumoniae ATCC 43816 = type: cell-based, Klebsiella pneumoniae; conditions: ATCC 43816
Excerpt: Vancomycin, rifampicin, kanamycin, gentamicin, ampicillin, ciprofloxacin and tetracycline (Sigma-Aldrich) were provided as standard powders by the manufacturers.

[5] = tested on: S. aureus Smith ATCC 13709; assay: Acute lethal infection in mice; type: in vivo, ICR mice; conditions: for Survival of all treated mice: S. aureus infection; for Animal deaths Day 0 / Animal deaths Day 1 / Animal deaths Day 3 / Animal deaths Day 4 / Animal deaths Day 5 / Animal deaths Day 2: mice, S. aureus 5 log10 CFU/mouse IP, n=6
Description: Female ICR mice ordered from Harlan Laboratories (Indianapolis, Ind.) weighing 19-21 g were used in experiments of acute lethal infection. Mice were fully immunocompetent. Infection was induced by inoculating intraperitoneally in mice a bacterial suspension of S. aureus Smith ATCC 13709. The bacterial challenges (ca 5 log10 CFU/mouse) were given suspended in 0.5 mL of 20% hog mucin. […] Mortality was tracked out to 5 days post challenge. Animals that remained surviving at the end of the study were humanely euthanized.

P. aeruginosa ATCC 27853 [6] = assay: Acute lethal infection in mice; type: in vivo, BALB/c mice; conditions: mice, P. aeruginosa 8.6 log10 CFU/mouse IP, n=6
Description: Female BALB/c mice ordered from Harlan Laboratories (Indianapolis, Ind.) weighing 19-21 g were used in experiments of acute lethal infection. Mice were fully immunocompetent. Infection was induced by inoculating intraperitoneally in mice a bacterial suspension of P. aeruginosa ATCC 27853. The bacterial challenges (8.6 log10 CFU/mouse) were given suspended in 0.1 mL sterile saline. Treatments were administered once 1 hour after challenge via IV injection (Tobramycin was administered via IP injection immediately after challenge) (Table 13). Mortality was tracked out to 2 days post challenge. Animals that remained surviving at the end of the study were humanely euthanized.

[7] = Odilomycin A 1.0 mg/kg IV at 1 hr
[8] = Odilomycin A 2.5 mg/kg IV at 1 hr
[9] = Odilomycin A 5.0 mg/kg IV at 1 hr
[10] = Odilomycin A 7.5 mg/kg IV at 1 hr
[11] = Odilomycin A 15 mg/kg IV at 1 hr

Q: What does the source list for `N=C(N)NCC/C=C(\NC(=O)C(CCC(O)CN)NC(=O)C(Cc1cnc[nH]1)NC(=O)C1CCCN1C(=O)C(CCCN)NC(=O)CNC(=O)C(NC(=O)C(NC(=O)C(N)CCCCN)C(O)CN)C(O)CN)C(=O)NC(CCC(O)CN)C(=O)NCCCCN` (stereo not drawn) [Odilomycin A, Lys-(3-hydroxy-2,4-diaminobutanoic acid)-(3-hydroxy-2,4-diaminobutanoic acid)-Gly-Ornithine-Pro-His-(5-hydroxylysine)-(2,3-dehydroarginine)-(5-hydroxylysine)-(1,4-diaminobutane)] (H-K[ξDab(3-OH)][ξDab(3-OH)]G[Orn]PH[X1][ΔZArg][X1]-{NH(CH2)4NH2}; configuration not given here)?
A: MICs (Escherichia coli): < 10 µg/mL; MIC (Escherichia coli; E. coli CTX-M14 clinical isolate AEC7): 3.13 µg/mL (≈ 2.41 µM); MIC (Escherichia coli; E. coli CTX-M15 clinical isolate MEC23): 3.13 µg/mL (≈ 2.41 µM); MIC (Klebsiella oxytoca): 0.39 µg/mL (≈ 0.301 µM); antibacterial activity (Klebsiella oxytoca; K. oxytoca): strong; antibacterial activity (Klebsiella pneumoniae): strong; MIC [1]: 6.25 µg/mL (≈ 4.82 µM); MICs [1]: < 10 µg/mL; MIC (Streptococcus pneumonia): >50.0 µg/mL; antibacterial activity (Streptococcus pneumonia; S. pneumoniae): Weak or no antibacterial activity; MIC (Streptococcus pyogenes): 50.0 µg/mL (≈ 38.6 µM); antibacterial activity (Streptococcus pyogenes; S. pyogenes): Weak or no antibacterial activity; MIC (Bacteroides fragilis): 1.56 µg/mL (≈ 1.2 µM); MICs (Staphylococcus aureus): < 1 µg/mL; Antibacterial activity (MIC) (Staphylococcus aureus; S. aureus multiresistant clinical isolate 16666): <0.19; Antibacterial activity (MIC) (Staphylococcus aureus; S. aureus multiresistant clinical isolate 20364): 0.78; Antibacterial activity (MIC) (Staphylococcus aureus; S. aureus multiresistant clinical isolate 20681): 1.56; Antibacterial activity (MIC) (Staphylococcus aureus; S. aureus multiresistant clinical isolate 21840): 0.39; Antibacterial activity (MIC) (Staphylococcus aureus; S. aureus multiresistant clinical isolate 23305): 0.78; MBC (S. aureus ATCC 13709 [2]): 0.78 µg/mL (≈ 0.602 µM); Time to kill 100% of bacteria (S. aureus ATCC 13709 [3]): ≤ 3 h; Time to kill 100% of bacteria (P. aeruginosa ATCC 27853 [4]): ≤ 2 h; MIC antibiotic alone (K. pneumoniae ATCC 43816): 25 µg/mL (≈ 19.3 µM); Survival of all treated mice ([5]; Odilomycin A 2.5 mg/kg IV): survived up to 5 days after infection; Survival of all treated mice ([5]; Odilomycin A 5.0 mg/kg IV): survived up to 5 days after infection; Animal deaths Day 0 [5, 7]: 0; Animal deaths Day 1 [5, 7]: 0; Animal deaths Day 3 [5, 7]: 0; Animal deaths Day 4 [5, 7]: 0; Animal deaths Day 5 [5, 7]: 0; Animal deaths Day 0 [5, 8]: 0; Animal deaths Day 1 [5, 8]: 0; Animal deaths Day 2 [5, 8]: 0; Animal deaths Day 3 [5, 8]: 0; Animal deaths Day 4 [5, 8]: 0; Animal deaths Day 5 [5, 8]: 0; Animal deaths Day 0 [5, 9]: 0; Animal deaths Day 1 [5, 9]: 0; Animal deaths Day 2 [5, 9]: 0; Animal deaths Day 3 [5, 9]: 0; Animal deaths Day 4 [5, 9]: 0; Animal deaths Day 5 [5, 9]: 0; Animal deaths Day 0 (P. aeruginosa ATCC 27853 [6]; [10]): 0; Animal deaths Day 1 (P. aeruginosa ATCC 27853 [6]; [10]): 4; Animal deaths Day 2 (P. aeruginosa ATCC 27853 [6]; [10]): 1; Animal deaths Day 0 (P. aeruginosa ATCC 27853 [6]; [11]): 0; Animal deaths Day 2 (P. aeruginosa ATCC 27853 [6]; [11]): 4
